According to patent US9120749B2, “Quinoline derivatives and MELK inhibitors containing the same” (ONCOTHERAPY SCIENCE, INC., priority 2010, dated 2015):

Tests used:
[1] = system: DU4475 cells; assay: Cell-based assay: anti-proliferative activity, Cell Counting Kit-8, 72 hours (DU4475); conditions: Homo sapiens, DU-4475, 72 h
[2] = system: HT-1197 cells; assay: Cell-based assay: anti-proliferative activity, Cell Counting Kit-8, 72 hours (HT-1197, negative control without MELK expression); conditions: Homo sapiens, HT1197, 72 h, 72 hours
Outline: (§1)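 Proliferation read with Cell Counting Kit-8 after 72 hours of inhibitor treatment, from seeding of 2,000–3,000 cells/well. Lines: T47D, A549, BT-549; HT-1197, lacking MELK by western blot, served as negative control. IC50 derived.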

[3] = biological target: MELK (Homo sapiens, UniProt Q14680); assay: Kinase assay: MELK activity, phosphorylation of FITC-labeled histone H3 peptide measured by IMAP fluorescence polarization; format: biochemical; conditions: read-out: IC50 (μM) (kinase assay)
Sequence of MELK (Q14680 whole entry, looked up): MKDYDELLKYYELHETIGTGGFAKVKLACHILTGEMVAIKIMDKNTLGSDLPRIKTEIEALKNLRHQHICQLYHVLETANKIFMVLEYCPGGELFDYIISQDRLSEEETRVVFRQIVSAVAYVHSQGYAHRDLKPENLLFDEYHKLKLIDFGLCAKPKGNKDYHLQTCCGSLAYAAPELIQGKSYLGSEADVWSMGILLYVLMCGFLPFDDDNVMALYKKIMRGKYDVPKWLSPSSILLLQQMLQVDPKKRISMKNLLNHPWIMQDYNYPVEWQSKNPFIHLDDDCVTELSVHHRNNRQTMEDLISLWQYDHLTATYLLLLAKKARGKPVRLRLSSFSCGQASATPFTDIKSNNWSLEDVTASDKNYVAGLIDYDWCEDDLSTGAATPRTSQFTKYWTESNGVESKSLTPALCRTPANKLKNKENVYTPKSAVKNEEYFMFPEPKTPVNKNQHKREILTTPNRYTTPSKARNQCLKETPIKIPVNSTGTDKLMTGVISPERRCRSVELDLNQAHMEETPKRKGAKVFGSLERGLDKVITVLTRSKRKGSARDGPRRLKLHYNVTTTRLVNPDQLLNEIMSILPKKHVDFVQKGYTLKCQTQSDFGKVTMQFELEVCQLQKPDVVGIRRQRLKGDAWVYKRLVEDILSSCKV
Outline: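 Fluorescence polarization was measured 0.5 h (room temperature) after quenching with threefold volume of progressive binding solution. Test compounds from 12.5 mM DMSO stocks were assayed at 1% DMSO.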

[4] = system: A549 cells; assay: Cell-based assay: anti-proliferative activity, Cell Counting Kit-8, 72 hours (A549); conditions: Homo sapiens, A549, 72 h, 72 hours
Outline: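 A549 cells seeded in 96-well plates and exposed to candidate inhibitors for 72 hours. Growth measured with Cell Counting Kit-8; IC50 values calculated from the dose response.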

[5] = system: T47D cells; assay: Cell-based assay: anti-proliferative activity, Cell Counting Kit-8, 72 hours (T47D); conditions: Homo sapiens, T47D, 72 h
Outline: as §1

[6] = system: DU4475 cells; assay: Cell-based assay: anti-proliferative activity, Cell Counting Kit-8, 72 hours (DU4475); conditions: Homo sapiens, DU-4475, 72 h; remark: listed apart in the source
[7] = HT1197 cells (negative control)
[8] = HT1197 cells (negative control, no MELK expression)

Compound	IC50 [1] [µM]	IC50 [2, 7] [µM]	IC50 [3] [µM]	IC50 [4] [µM]	IC50 [5] [µM]	IC50 [2, 8] [µM]	IC50 [6] [µM]
CN[C@H]1CC[C@H](Nc2c(C(=O)C3CC3)cnc3ccc(-c4cc(Cl)c(O)c(Cl)c4)cc23)CC1 [Example 510, Cyclopropyl{6-(3,5-dichloro-4-hydroxyphenyl)-4-[trans-4-(methylamino)cyclohexylamino]quinolin-3-yl}methanone]	0.018	1	0.0019	0.12	0.054		
O=C(c1cnc2ccc(-c3cc(Cl)c(O)c(Cl)c3)cc2c1Nc1cnn(C2CCNCC2)c1)C1CC1 [Example 511, cyclopropyl(6-(3,5-dichloro-4-hydroxyphenyl)-4-((1-(piperidin-4-yl)-1H-pyrazol-4-yl)amino)quinolin-3-yl)methanone]	0.019	10	0.017	0.31	0.18		
COc1cc(-c2ccc3ncc(C(=O)C4CC4)c(Nc4cnn(C5CCNCC5)c4)c3c2)cc(Cl)c1O [Example 512, (6-(3-chloro-4-hydroxy-5-methoxyphenyl)-4-(1-(piperidin-4-yl)-1H-pyrazol-4-ylamino)quinolin-3-yl)(cyclopropyl)methanone]	0.31	2.9	0.0022	0.3	0.41		
COc1cc(-c2ccc3ncc(C(=O)C4CC4)c(N[C@H]4CC[C@@H](CN(C)C)CC4)c3c2)cc(Cl)c1O [Example 513]	0.086	3.8	0.002	0.099	0.19		
CN(C)C[C@H]1CC[C@@H](Nc2c(C(=O)C3CC3)cnc3ccc(-c4cc(F)c(O)c(Cl)c4)cc23)CC1 [Example 514, (6-(3-chloro-5-fluoro-4-hydroxyphenyl)-4-((1s,4s)-4-((dimethylamino)methyl)cyclohexylamino)quinolin-3-yl)(cyclopropyl)methanone]	0.21	0.77	0.0028	0.26	0.44		
NC[C@H]1CC[C@@H](Nc2c(C(=O)C3CC3)cnc3ccc(-c4cc(F)c(O)c(Cl)c4)cc23)CC1 [Example 515, (4-((1s,4s)-4-(aminomethyl)cyclohexylamino)-6-(3-chloro-5-fluoro-4-hydroxyphenyl)quinolin-3-yl)(cyclopropyl)methanone]	0.12	3.9	0.0034	0.83	0.23		
COc1cc(-c2ccc3ncc(C(=O)C4CC4)c(C4=CCNCC4)c3c2)cc(Cl)c1O [Example 516, (6-(3-chloro-4-hydroxy-5-methoxyphenyl)-4-(1,2,3,6-tetrahydropyridin-4-yl)quinolin-3-yl)(cyclopropyl)methanone]	0.66	3	0.0044	0.36	0.52		
COc1cc(-c2ccc3ncc(C(=O)C4CC4)c(N[C@H]4CC[C@@H](CN(C)CC#N)CC4)c3c2)cc(Cl)c1O [Example 518, 2-((((1R,4R)-4-(6-(3-chloro-4-hydroxy-5-methoxyphenyl)-3-(cyclopropanecarbonyl)quinolin-4-ylamino)cyclohexyl)methyl)(methyl)amino)acetonitrile]	0.078	3.4	0.013	0.17	0.16		
O=C(c1cnc2ccc(-c3ccc(O)c(Cl)c3)cc2c1Nc1cnn(C2CCNCC2)c1)C1CC1 [Example 519, (6-(3-chloro-4-hydroxyphenyl)-4-((1-(piperidin-4-yl)-1H-pyrazol-4-yl)amino)quinolin-3-yl)(cyclopropyl)methanone]	0.1	1.6	0.003	0.14	0.12		
O=C(c1cnc2ccc(-c3cc(F)c(O)c(Cl)c3)cc2c1Nc1cnn(C2CCNCC2)c1)C1CC1 [Example 520]	0.042	10	0.0016	0.52	0.081		
COc1cc(-c2ccc3ncc(C(=O)C4CC4)c(C4=CCN(C(=O)CN(C)C)CC4)c3c2)cc(Cl)c1O [Example 521, 1-(4-(6-(3-chloro-4-hydroxy-5-methoxyphenyl)-3-(cyclopropanecarbonyl)quinolin-4-yl)-5,6-dihydropyridin-1(2H)-yl)-2-(dimethylamino)ethanone]	0.27	1.5	0.0024	0.18	0.22		
CN[C@H]1CC[C@H](Nc2c(C(=O)C3CC3)cnc3ccc(-c4cnc(C#N)nc4)cc23)CC1 [Example 522]	0.91	1.1	0.0014	0.95	0.23		
CN[C@H]1CC[C@H](Nc2c(C(=O)C3CC3)cnc3ccc(-c4cc(F)c(O)c(Cl)c4)cc23)CC1 [Example 523, {6-(3-Chloro-5-fluoro-4-hydroxyphenyl)-4-[trans-4-(methylamino)cyclohexylamino]quinolin-3-yl}(cyclopropyl)methanone]	0.024	1.3	0.0024	0.19	0.033		
CN(CC#N)C[C@H]1CC[C@@H](Nc2c(C(=O)C3CC3)cnc3ccc(-c4cc(F)c(O)c(Cl)c4)cc23)CC1 [Example 524, 2-((((1R,4R)-4-(6-(3-Chloro-5-fluoro-4-hydroxyphenyl)-3-(cyclopropanecarbonyl)quinolin-4-ylamino)cyclohexyl)methyl)(methyl)amino)acetonitrile]	0.1	1.7	0.01	0.39	0.2		
CN1CCN(C[C@H]2CC[C@H](Nc3c(C(=O)C4CC4)cnc4ccc(-c5cc(Cl)c(O)c(Cl)c5)cc34)CC2)CC1 [Example 618]	0.12	2.3		0.21	0.23		
COc1cc(-c2ccc3ncc(C(C)=O)c(N[C@H]4CC[C@H](CN5CCCC5)CC4)c3c2)cc(Cl)c1O [Example 734]			0.0016	0.25	0.51	6.4	0.36
NC1CCN(c2cc(Nc3c(C(=O)C4CC4)cnc4ccc(-c5cc(Cl)c(O)c(Cl)c5)cc34)ccn2)CC1 [Example 735, (4-(2-(4-aminopiperidin-1-yl)pyridin-4-ylamino)-6-(3,5-dichloro-4-hydroxyphenyl)quinolin-3-yl)(cyclopropyl)methanone]			0.0041	3.5	1	20	0.5
CCC(=O)c1cnc2ccc(-c3cc(F)c(O)c(Cl)c3)cc2c1Nc1ccc(N2CCN(C)CC2)nc1 [Example 736, 1-(6-(3-chloro-5-fluoro-4-hydroxyphenyl)-4-(6-(4-methylpiperazin-1-yl)pyridin-3-ylamino)quinolin-3-yl)propan-1-one]			0.036	0.22	0.14	10	0.19
CCC(=O)c1cnc2ccc(-c3cc(Cl)c(O)c(Cl)c3)cc2c1Nc1ccc(N2CCN(C)CC2)nc1 [Example 737, 1-(6-(3,5-dichloro-4-hydroxyphenyl)-4-(6-(4-methylpiperazin-1-yl)pyridin-3-ylamino)quinolin-3-yl)propan-1-one]			0.055	0.29	0.31	10	0.27
COc1cc(-c2ccc3ncc(C(C)=O)c(N[C@H]4CC[C@H](CCN(C)C)CC4)c3c2)cc(Cl)c1O [Example 738]			0.0026	0.34	0.51	7.8	2.1
CC(=O)c1cnc2ccc(-c3cc(F)c(O)c(Cl)c3)cc2c1N[C@H]1CC[C@H](CCN(C)C)CC1 [Example 741, 1-(6-(3-chloro-5-fluoro-4-hydroxyphenyl)-4-((trans-4-(2-(dimethylamino)ethyl)cyclohexyl)amino)quinolin-3-yl)ethanone]			0.0048	0.085	0.037	2	0.062
COc1cc(-c2ccc3ncc(C(C)=O)c(Nc4ccc(CCN(C)C)cc4)c3c2)cc(Cl)c1O [Example 743, 1-(6-(3-chloro-4-hydroxy-5-methoxyphenyl)-4-(4-(2-(dimethylamino)ethyl)phenylamino)quinolin-3-yl)ethanone]			0.0042	0.53	0.66	4.8	0.36
CC(=O)c1cnc2ccc(-c3cc(Cl)c(O)c(Cl)c3)cc2c1Nc1ccc(CCN(C)C)cc1 [Example 744, 1-(6-(3,5-dichloro-4-hydroxyphenyl)-4-(4-(2-(dimethylamino)ethyl)phenylamino)quinolin-3-yl)ethanone]			0.0017	0.082	0.11	0.43	0.031
CC(=O)c1cnc2ccc(-c3cc(F)c(O)c(Cl)c3)cc2c1Nc1ccc(CCN(C)C)cc1 [Example 745, 1-(6-(3-chloro-5-fluoro-4-hydroxyphenyl)-4-(4-(2-(dimethylamino)ethyl)phenylamino)quinolin-3-yl)ethanone]			0.0083	0.16	0.12	0.99	0.063
